Reference: patent publication US4087450A, “(Polychlorophenoxy) methyl esters of thiocyanic acid” (priority 1977, dated 1978)
≈ marks a conversion by molar mass, not a printed value. Values belong to the compound of their own block, whether it stands above or below them.

Legend:
mold growth [1] = experiment: outdoor exposure test, preservation of alkyd paint (modified ASTM D-1006); set-up: key to mold growth rating, 8 Mo. / mold growth rating, 4 Mo. / mold growth rating, 5 Mo.: 1: No mold growth; 2: Trace, <5% growth; 3: Trace, 5-10% growth; 4: 10-25% growth; 25-50% growth; 6: 50-70% growth; 70-90% growth; 8: 90-95% growth; 9: 100% growth; 100% growth, severe; conditions: for mold growth rating, 4 Mo.: 4 months outdoor; for mold growth rating, 5 Mo.: 5 months outdoor; for mold growth rating, 8 Mo.: 8 months outdoor; for mold growth rating, 10 Mo.: 10 months outdoor
Source text: (§1) Using a modification of ASTM D-1006, clear sapwood ponderosa pine boards 1/2 inch × 6 inches × 36 inches were primed with an unpreserved alkyd coating. A single coat of paint (alkyd or acrylic latex) incorporating compound (I) was brush applied. The boards were then exposed to the elements at Lake Jackson, Texas, and periodically readings were taken using the following rating scale: […]

Candida albicans = experiment: conventional agar dilution test, 100% growth inhibition; format: cell-based; conditions: read-out: Concentration for 100% Growth Inhibition
Source text: (§2) In representative operations, the compounds of the present invention when tested for their activity as antimicrobials using conventional agar dilution tests give complete growth inhibition against C. albicans, T. mentagrophytes, C. pelliculosa, R. nigricans, C. ips, C. fragans and Trichoderma sp. 42. The following Table provides test data summaries in comparison with the activity of art compounds.

[2] = test system: Trichophyton mentagrophytes; experiment: as above; format: cell-based; conditions: read-out: Concentration for 100% Growth Inhibition
Source text: as §2

Pullularia pullulans = experiment: as above; format: cell-based; conditions: read-out: Concentration for 100% Growth Inhibition
Source text: as §2

Trichoderma species 42 = experiment: as above; format: cell-based; conditions: Trichoderma species 42, agar dilution; read-out: Concentration for 100% Growth Inhibition
Source text: as §2

Ceratocystis ips = experiment: as above; format: cell-based; conditions: read-out: Concentration for 100% Growth Inhibition
Source text: as §2

Candida pelliculosa = experiment: as above; format: cell-based; conditions: Hansenula anomala, read-out: Concentration for 100% Growth Inhibition
Source text: as §2

Rhizopus nigricans = experiment: as above; format: cell-based; conditions: Rhizopus stolonifer, read-out: Concentration for 100% Growth Inhibition
Source text: as §2

[3] = water-leachability determination, retention on glass fiber paper; format: physicochemical; conditions: leached 8 hours, 20° C. water at 10 ml./sec., average of duplicate determinations
Protocol: (§3) To determine volatility and water solubility of the compounds, the following procedure was used: A 0.1 g. portion of each compound was dissolved in 2.0 ml. acetone. One-half of this solution was placed on a dry, pre-weighed, 7 cm. diameter sheet of glass fiber paper (Reeve Angel #934AH). The fiber paper was allowed to air dry for 24 hours and was re-weighed to determine the amount (0.05 g.) of the compound present. The other half of the solution was used to impregnate similarly another sheet of glass fiber paper. For the volatility determination, one of the papers was placed in a 50° C. oven for 7 days, removed, air cooled for 24 hours, and weighed. The percent retention given in Table II was calculated by the following formula: [formula]
For the water-leachability determination, the second impregnated paper was leached for 8 hours with 20° C. water running at 10 ml./sec. The fiber paper was allowed to air dry for 24 hours, then re-weighed. The percent retention was also calculated by the above formula. The figures recorded in following Table II represent the average of duplicate determinations.

[4] = volatility determination, retention on glass fiber paper; format: physicochemical; conditions: 50° C. oven for 7 days, average of duplicate determinations
Protocol: as §3

mold growth [5] = experiment: outdoor exposure test, preservation of acrylic latex paint (modified ASTM D-1006); set-up: key to mold growth rating, 4 Mo. / mold growth rating, 5 Mo. / mold growth rating, 8 Mo.: 1: No mold growth; 2: Trace, <5% growth; 3: Trace, 5-10% growth; 4: 10-25% growth; 25-50% growth; 6: 50-70% growth; 70-90% growth; 8: 90-95% growth; 9: 100% growth; 100% growth, severe; conditions: for mold growth rating, 4 Mo.: 4 months outdoor; for mold growth rating, 5 Mo.: 5 months outdoor; for mold growth rating, 8 Mo.: 8 months outdoor; for mold growth rating, 10 Mo.: 10 months outdoor
Source text: as §1

Tunicates = experiment: marine antifoulant activity, fouling of test panels; conditions: Compound I 0.14 g. in panel, TBTO 0.13 g. in panel, seawater
Protocol: (§4) The compounds of this invention also repel or are toxic towards lower forms of marine life such as barnacles, and thereby function effectively as marine antifoulants. In evaluating marine antifoulant activity, a comparison of compound (I) vs. a standard antifouling toxicant, bis(tri-n-butyltin) oxide (TBTO), was carried out by treating pre-weighed 21/2 inch by 21/2 inch by 1/4 inch porous silica test panels with a solution of the individual compound in methyl isobutyl ketone, allowing the solvent to air dry to constant weight, and then immersing the panels in seawater at a subtropical location which has dense populations of fouling organisms. Under these conditions, an untreated panel became completely fouled after two months' exposure.

Oysters = experiment: as above; conditions: Compound I 0.14 g. in panel, TBTO 0.13 g. in panel, seawater
Protocol: as §4

Tube Worms = experiment: as above; conditions: Compound I 0.14 g. in panel, TBTO 0.13 g. in panel, seawater
Protocol: as §4

Encrusting Bryozoans = experiment: as above; conditions: Compound I 0.14 g. in panel, TBTO 0.13 g. in panel, seawater
Protocol: as §4

Hydroids = experiment: as above; conditions: Compound I 0.14 g. in panel, TBTO 0.13 g. in panel, seawater
Protocol: as §4

Microfouling = experiment: as above; conditions: Compound I 0.14 g. in panel, TBTO 0.13 g. in panel, seawater
Protocol: as §4

Algae = experiment: as above; conditions: Compound I 0.14 g. in panel, TBTO 0.13 g. in panel, seawater
Protocol: as §4

Barnacles = experiment: as above; conditions: Compound I 0.14 g. in panel, TBTO 0.13 g. in panel, seawater
Protocol: as §4

Algae Spores = experiment: as above; conditions: Compound I 0.14 g. in panel, TBTO 0.13 g. in panel, seawater
Protocol: as §4

important fungi = experiment: fungicidal activity against important fungi; conditions: in words

MIC (Candida albicans): 10 µg/mL (≈ 37.2 µM)
MIC [2]: 0.1 µg/mL (≈ 0.372 µM)
MIC (Pullularia pullulans): 10 µg/mL (≈ 37.2 µM)
MIC (Trichoderma species 42): 10 µg/mL (≈ 37.2 µM)
MIC (Ceratocystis ips): 1 µg/mL (≈ 3.72 µM)
MIC (Candida pelliculosa): 10 µg/mL (≈ 37.2 µM)
MIC (Rhizopus nigricans): 10 µg/mL (≈ 37.2 µM)
Percent Retention, Water Extraction [3]: 92%
Percent Retention, Volatility [4]: 74%
SMILES: N#CSCOc1cc(Cl)c(Cl)cc1Cl [Compound I, Thiocyanic Acid, (2,4,5-Trichlorophenoxy)Methyl Ester]
mold growth rating, 4 Mo. (mold growth [1]; 0.4 wt. % (I)): 9 (100% growth)
mold growth rating, 5 Mo. (mold growth [1]; 0.4 wt. % (I)): 9 (100% growth)
mold growth rating, 8 Mo. (mold growth [1]; 0.4 wt. % (I)): 1
mold growth rating, 10 Mo. (mold growth [1]; 0.4 wt. % (I)): 2 (Trace, <5% growth)
mold growth rating, 4 Mo. (mold growth [1]; 0.6 wt. % (I)): 8 (90-95% growth)
mold growth rating, 5 Mo. (mold growth [1]; 0.6 wt. % (I)): 9 (100% growth)
mold growth rating, 8 Mo. (mold growth [1]; 0.6 wt. % (I)): 1
mold growth rating, 10 Mo. (mold growth [1]; 0.6 wt. % (I)): 2 (Trace, <5% growth)
mold growth rating, 4 Mo. (mold growth [1]; 0.8 wt. % (I)): 4 (10-25% growth)
mold growth rating, 5 Mo. (mold growth [1]; 0.8 wt. % (I)): 3 (Trace, 5-10% growth)
mold growth rating, 8 Mo. (mold growth [1]; 0.8 wt. % (I)): 1
mold growth rating, 10 Mo. (mold growth [1]; 0.8 wt. % (I)): 2 (Trace, <5% growth)
mold growth rating, 4 Mo. (mold growth [1]; 1.0 wt. % (I)): 1
mold growth rating, 5 Mo. (mold growth [1]; 1.0 wt. % (I)): 1
mold growth rating, 8 Mo. (mold growth [1]; 1.0 wt. % (I)): 1
mold growth rating, 10 Mo. (mold growth [1]; 1.0 wt. % (I)): 2 (Trace, <5% growth)
mold growth rating, 4 Mo. (mold growth [5]; 0.5 wt. % (I)): 1
mold growth rating, 5 Mo. (mold growth [5]; 0.5 wt. % (I)): 1
mold growth rating, 8 Mo. (mold growth [5]; 0.5 wt. % (I)): 1
mold growth rating, 10 Mo. (mold growth [5]; 0.5 wt. % (I)): 2 (Trace, <5% growth)
mold growth rating, 4 Mo. (mold growth [5]; 1.0 wt. % (I)): 1
mold growth rating, 5 Mo. (mold growth [5]; 1.0 wt. % (I)): 1
mold growth rating, 8 Mo. (mold growth [5]; 1.0 wt. % (I)): 1
mold growth rating, 10 Mo. (mold growth [5]; 1.0 wt. % (I)): 2 (Trace, <5% growth)
Percent Fouling of Test Panels (Tunicates): 0%
Percent Fouling of Test Panels (Oysters): 0%
Percent Fouling of Test Panels (Tube Worms): 0%
Percent Fouling of Test Panels (Encrusting Bryozoans): 0%
Percent Fouling of Test Panels (Hydroids): 0%
Percent Fouling of Test Panels (Microfouling): 0%
Percent Fouling of Test Panels (Algae): 0%
Percent Fouling of Test Panels (Barnacles): 0%
Percent Fouling of Test Panels (Algae Spores): 30%

MIC (Candida albicans): 100 µg/mL (≈ 427 µM)
MIC [2]: 1 µg/mL (≈ 4.27 µM)
MIC (Pullularia pullulans): 10 µg/mL (≈ 42.7 µM)
MIC (Trichoderma species 42): 10 µg/mL (≈ 42.7 µM)
MIC (Ceratocystis ips): 10 µg/mL (≈ 42.7 µM)
MIC (Candida pelliculosa): 10 µg/mL (≈ 42.7 µM)
MIC (Rhizopus nigricans): 10 µg/mL (≈ 42.7 µM)
Percent Retention, Water Extraction [3]: 52%
Percent Retention, Volatility [4]: 6%
SMILES: N#CSCOc1ccc(Cl)cc1Cl [Compound V]

MIC (Candida albicans): 10 µg/mL (≈ 33 µM)
MIC [2]: 1 µg/mL (≈ 3.3 µM)
MIC (Pullularia pullulans): 1 µg/mL (≈ 3.3 µM)
MIC (Trichoderma species 42): 1 µg/mL (≈ 3.3 µM)
MIC (Ceratocystis ips): 1 µg/mL (≈ 3.3 µM)
MIC (Candida pelliculosa): 10 µg/mL (≈ 33 µM)
MIC (Rhizopus nigricans): 100 µg/mL (≈ 330 µM)
Percent Retention, Water Extraction [3]: 96%
Percent Retention, Volatility [4]: 49%
SMILES: N#CSCOc1c(Cl)cc(Cl)c(Cl)c1Cl [II, Thiocyanic Acid, (2,3,4,6-Tetrachlorophenoxy)Methyl Ester]

MIC (Candida albicans): 500 µg/mL (≈ 2500 µM)
MIC [2]: 100 µg/mL (≈ 501 µM)
MIC (Pullularia pullulans): 500 µg/mL (≈ 2500 µM)
MIC (Trichoderma species 42): 100 µg/mL (≈ 501 µM)
MIC (Ceratocystis ips): 500 µg/mL (≈ 2500 µM)
MIC (Candida pelliculosa): 500 µg/mL (≈ 2500 µM)
MIC (Rhizopus nigricans): 500 µg/mL (≈ 2500 µM)
Percent Retention, Water Extraction [3]: 80%
Percent Retention, Volatility [4]: 2%
SMILES: N#CSCOc1ccc(Cl)cc1 [III]

MIC (Candida albicans): 500 µg/mL (≈ 2340 µM)
MIC [2]: 100 µg/mL (≈ 468 µM)
MIC (Pullularia pullulans): 500 µg/mL (≈ 2340 µM)
MIC (Trichoderma species 42): 100 µg/mL (≈ 468 µM)
MIC (Ceratocystis ips): 500 µg/mL (≈ 2340 µM)
MIC (Candida pelliculosa): 500 µg/mL (≈ 2340 µM)
MIC (Rhizopus nigricans): 500 µg/mL (≈ 2340 µM)
Percent Retention, Water Extraction [3]: 71%
Percent Retention, Volatility [4]: 12%
SMILES: Cc1cc(OCSC#N)ccc1Cl [IV]

SMILES: CCC[CH2][Sn]([CH2]CCC)([CH2]CCC)[O][Sn]([CH2]CCC)([CH2]CCC)[CH2]CCC [TBTO, bis(tri-n-butyltin) oxide, reference compound]
Percent Fouling of Test Panels (Tunicates): 0%
Percent Fouling of Test Panels (Oysters): 0%
Percent Fouling of Test Panels (Tube Worms): 0%
Percent Fouling of Test Panels (Encrusting Bryozoans): 0%
Percent Fouling of Test Panels (Hydroids): 0%
Percent Fouling of Test Panels (Microfouling): 0%
Percent Fouling of Test Panels (Algae): 0%
Percent Fouling of Test Panels (Barnacles): 0%
Percent Fouling of Test Panels (Algae Spores): 20%

SMILES: N#CSCOc1c(Cl)c(Cl)c(Cl)c(Cl)c1Cl [VI]
MIC (Candida albicans): > 500 µg/mL
MIC [2]: 100 µg/mL (≈ 296 µM)
MIC (Pullularia pullulans): > 500 µg/mL
MIC (Trichoderma species 42): > 500 µg/mL
MIC (Ceratocystis ips): > 500 µg/mL
MIC (Candida pelliculosa): > 500 µg/mL
MIC (Rhizopus nigricans): > 500 µg/mL
Percent Retention, Water Extraction [3]: 98%
Percent Retention, Volatility [4]: 97%

SMILES: N#CSCOc1c(Cl)c(Cl)c(Cl)c(Cl)c1Cl [pentachloro-(thiocyanatomethoxy)- benzene]
fungicidal activity against important fungi, relative to the compounds of this invention (important fungi): a small fraction of that of the compounds herein claimed
